The record followed here is patent publication US11312727B1, “Macrocyclic flu endonuclease inhibitors” (Janssen BioPharma, Inc., priority 2018, dated 2022).

Data set [1] concerns Influenza strain A549 A/WSN/33 (H1N1). Put plainly: microbe, parasite or virus in culture. The class given is cell-based. Conditions: Influenza A virus, A549, 20 h, A549 cells, influenza A/WSN/33 (H1N1), 20 hours incubation; read-out: A549_A(H1N1) EC50.
Another data set in a line: in vitro. Particulars: human, CC50, uninfected A549 cells, CellTiter-Glo. For orientation: ATP-based viability assays read luminescence as a measure of living cells.

Structures are written as SMILES.

Consider `O=C1c2c(O)c(=O)ccn2N2CN1C[C@H]1C[C@H]1COc1cccc3c1[C@H]2c1ccccc1SC3` (single isomer, unassigned) [Compound 118AA, (1a*R,11b*S,20a*S)-17-hydroxy-1a,2,6,11 b,17,17a,20,20a-octahydro-1H-5,4-(epiprop[1]en[1]yl[3]ylidene)-12,19-methanobenzo[6,7]thiepino[4,5-c]cyclopropa[k]pyrido[1,2-f][1]oxa[5,6,9]triazacyclotridecine-16,18-dione], for which the EC50 in data set [1] amounted to 6.2 nM. For the same molecule, the CC50 in the data set “in vitro” was above 200 nM.

Consider `O=C1c2c(O)c(=O)ccn2N2CN1C[C@@H]1C[C@@H]1COc1cccc3c1[C@H]2c1ccccc1SC3` (single isomer, unassigned) [Compound 118AB, (1a*S,11b*S,20a*R)-17-hydroxy-1a,2,6,11b,17,17a,20,20a-octahydro-1H-5,4-(epiprop[1]en[1]yl[3]ylidene)-12,19-methanobenzo[6,7]thiepino[4,5-c]cyclopropa[k]pyrido[1,2-f][1]oxa[5,6,9]triazacyclotridecine-16,18-dione], for which, in data set [1], the EC50 was 10 nM. Also, the CC50 in “in vitro” is above 200 nM.

On to `CSc1ccccc1[C@H]1c2cccc(F)c2OC/C=C\CN2CN1n1ccc(=O)c(O)c1C2=O` (single isomer, unassigned) [Compound 119A, (18*R,*Z)-4-fluoro-12-hydroxy-18-(2-(methylthio)phenyl)-6,9-dihydro-18H-10,17-methanobenzo[b]pyrido[1,2-f][1]oxa[5,6,9]triazacyclotridecine-11,13-dione], for which the EC50 in data set [1] is above 100 nM. Moreover, the CC50 in the data set “in vitro” is above 200 nM.

In the case of `CSc1ccccc1[C@@H]1c2cccc(F)c2OC/C=C\CN2CN1n1ccc(=O)c(O)c1C2=O` (single isomer, unassigned) [Compound 119B, (18*S,*Z)-4-fluoro-12-hydroxy-18-(2-(methylthio)phenyl)-6,9-dihydro-18H-10,17-methanobenzo[b]pyrido[1,2-f][1]oxa[5,6,9]triazacyclotridecine-11,13-dione], the EC50 in data set [1] came to 22 nM. The same molecule showed a CC50 in “in vitro” above 200 nM.

Turning to `CC[C@@H]1/C=C/COc2c(ccc(Cl)c2Cl)C(c2ccccc2)N2CN1C(=O)c1c(O)c(=O)ccn12` (single isomer, unassigned) [Compound 121AA, (9*R,18*R,*E)-3,4-dichloro-9-ethyl-12-hydroxy-18-phenyl-6,9-dihydro-18H-10,17-methanobenzo[b]pyrido[1,2-f][1]oxa[5,6,9]triazacyclotridecine-11,13-dione], in data set [1], the EC50 came out at 3.5 nM. This molecule also displayed a CC50 in “in vitro” above 200 nM.

In the case of `CC[C@H]1/C=C/COc2c(ccc(Cl)c2Cl)[C@@H](c2ccccc2)N2CN1C(=O)c1c(O)c(=O)ccn12` (single isomer, unassigned) [Compound 121AB, (9*S,18*R,*E)-3,4-dichloro-9-ethyl-12-hydroxy-18-phenyl-6,9-dihydro-18H-10,17-methanobenzo[b]pyrido[1,2-f][1]oxa[5,6,9]triazacyclotridecine-11,13-dione], the EC50 in data set [1] was above 100 nM. In the data set “in vitro”, the CC50 was above 200 nM.

For the molecule `CC[C@@H]1/C=C/COc2c(ccc(Cl)c2Cl)[C@H](c2ccccc2)N2CN1C(=O)c1c(O)c(=O)ccn12` (single isomer, unassigned) [Compound 121BA, (9*R,18*S,*E)-3,4-dichloro-9-ethyl-12-hydroxy-18-phenyl-6,9-dihydro-18H-10,17-methanobenzo[b]pyrido[1,2-f][1]oxa[5,6,9]triazacyclotridecine-11,13-dione], in data set [1], the EC50 came out at 2.8 nM. In the data set “in vitro”, this molecule gave a cytotoxic concentration (CC50) above 200 nM.

For the molecule `CC[C@H]1/C=C/COc2c(ccc(Cl)c2Cl)[C@H](c2ccccc2)N2CN1C(=O)c1c(O)c(=O)ccn12` (single isomer, unassigned) [Compound 121BB, (9*S,18*S,*E)-3,4-dichloro-9-ethyl-12-hydroxy-18-phenyl-6,9-dihydro-18H-10,17-methanobenzo[b]pyrido[1,2-f][1]oxa[5,6,9]triazacyclotridecine-11,13-dione], the 50% effective concentration (EC50) in data set [1] was determined as 60 nM. Also, the CC50 in “in vitro” is above 200 nM.

Turning to `CS(=O)(=O)c1ccccc1[C@@H]1c2cccc(F)c2OC/C=C\CN2CN1n1ccc(=O)c(O)c1C2=O` (single isomer, unassigned) [Compound 122, (18*S,*Z)-4-fluoro-12-hydroxy-18-(2-(methylsulfonyl)phenyl)-6,9-dihydro-18H-10,17-methanobenzo[b]pyrido[1,2-f][1]oxa[5,6,9]triazacyclotridecine-11,13-dione], the EC50 in data set [1] was above 100 nM. The 50% cytotoxic concentration (CC50) in “in vitro” was above 200 nM.

With `CC(C)[C@H]1/C=C/COc2c(F)cccc2[C@@H](c2ccccc2)N2CN1C(=O)c1c(O)c(=O)ccn12` (single isomer, unassigned) [Compound 124AA, (9*S,18*R,*E)-4-fluoro-12-hydroxy-9-isopropyl-18-phenyl-6,9-dihydro-18H-10,17-methanobenzo[b]pyrido[1,2-f][1]oxa[5,6,9]triazacyclotridecine-11,13-dione], in data set [1], the 50% effective concentration (EC50) was above 100 nM. Also, the CC50 in the data set “in vitro” is above 200 nM.

As for `CC(C)[C@@H]1/C=C/COc2c(F)cccc2[C@H](c2ccccc2)N2CN1C(=O)c1c(O)c(=O)ccn12` (single isomer, unassigned) [Compound 124BB, (9*R,18*S,*E)-4-fluoro-12-hydroxy-9-isopropyl-18-phenyl-6,9-dihydro-18H-10,17-methanobenzo[b]pyrido[1,2-f][1]oxa[5,6,9]triazacyclotridecine-11,13-dione], in data set [1], the EC50 amounted to 5.3 nM. In “in vitro”, this molecule gave a CC50 above 200 nM.

With `O=C1c2c(O)c(=O)ccn2N2CN1C[C@@H]1C[C@H]1COc1c(F)cccc1[C@H]2c1ccccc1` (single isomer, unassigned) [Compound 125AA, (1a*R,8*R,17a*R)-4-fluoro-14-hydroxy-8-phenyl-1a,2,17,17a-tetrahydro-1H,8H-9,16-methanobenzo[b]cyclopropa[k]pyrido[1,2-f][1]oxa[5,6,9]triazacyclotridecine-13,15-dione], the EC50 in data set [1] is 51 nM. The same molecule came in with a CC50 in the data set “in vitro” above 200 nM.

Take `O=C1c2c(O)c(=O)ccn2N2CN1C[C@H]1C[C@@H]1COc1c(F)cccc1[C@H]2c1ccccc1` (single isomer, unassigned) [Compound 125AB, (1a*R,8*S,17a*R)-4-fluoro-14-hydroxy-8-phenyl-1a,2,17,17a-tetrahydro-1H,8H-9,16-methanobenzo[b]cyclopropa[k]pyrido[1,2-f][1]oxa[5,6,9]triazacyclotridecine-13,15-dione]: the 50% effective concentration (EC50) in data set [1] was 24 nM. Besides, the CC50 in “in vitro” is above 200 nM.

With `O=C1c2c(O)c(=O)ccn2N2CN1C[C@@H]1C[C@H]1COc1c(F)cccc1[C@@H]2c1ccccc1` (single isomer, unassigned) [Compound 125BA, (1a*S,8*R,17a*S)-4-fluoro-14-hydroxy-8-phenyl-1a,2,17,17a-tetrahydro-1H,8H-9,16-methanobenzo[b]cyclopropa[k]pyrido[1,2-f][1]oxa[5,6,9]triazacyclotridecine-13,15-dione], in data set [1], the half-maximal effective concentration (EC50) is above 100 nM. Also, the CC50 in the data set “in vitro” was above 200 nM.

With `O=C1c2c(O)c(=O)ccn2N2CN1C[C@H]1C[C@@H]1COc1c(F)cccc1[C@@H]2c1ccccc1` (single isomer, unassigned) [Compound 125BB, (1a*S,8*S,17a*S)-4-fluoro-14-hydroxy-8-phenyl-1a,2,17,17a-tetrahydro-1H,8H-9,16-methanobenzo[b]cyclopropa[k]pyrido[1,2-f][1]oxa[5,6,9]triazacyclotridecine-13,15-dione], the EC50 in data set [1] is above 100 nM. In “in vitro”, this molecule had a 50% cytotoxic concentration (CC50) above 200 nM.

Consider `CC[C@H]1/C=C\COc2cc(F)c(F)c3c2[C@H](c2ccccc2SC3)N2CN1C(=O)c1c(O)c(=O)ccn12` (single isomer, unassigned) [Compound 126AA, (13*S,21a*R,Z)-13-ethyl-24,25-difluoro-16-hydroxy-6,10,13,21a-tetrahydro-7,8-(epiprop[1]en[1]yl[3]ylidene)-14,21-methanobenzo[6,7]thiepino[4,5-c]pyrido[1,2-f][1]oxa[5,6,9]triazacyclotridecine-15,17-dione], for which, in data set [1], the EC50 was above 100 nM. The molecule also registered a CC50 in “in vitro” above 200 nM.

On to `CC[C@@H]1/C=C/COc2cc(F)c(F)c3c2[C@H](c2ccccc2SC3)N2CN1C(=O)c1c(O)c(=O)ccn12` (single isomer, unassigned) [Compound 126AB, (9*R,17a*R,E)-9-ethyl-24,25-difluoro-12-hydroxy-2,6,9,17a-tetrahydro-3,4-(epiprop[1]en[1]yl[3]ylidene)-10,17-methanobenzo[6,7]thiepino[4,5-c]pyrido[1,2-f][1]oxa[5,6,9]triazacyclotridecine-11,13-dione], for which the EC50 in data set [1] is above 100 nM. In the data set “in vitro”, this molecule registered a CC50 above 200 nM.

Consider `CC[C@H]1/C=C/COc2cc(F)c(F)c3c2[C@@H](c2ccccc2SC3)N2CN1C(=O)c1c(O)c(=O)ccn12` (single isomer, unassigned) [Compound 126BA, (9*S,17a*S,E)-9-ethyl-24,25-difluoro-12-hydroxy-2,6,9,17a-tetrahydro-3,4-(epiprop[1]en[1]yl[3]ylidene)-10,17-methanobenzo[6,7]thiepino[4,5-c]pyrido[1,2-f][1]oxa[5,6,9]triazacyclotridecine-11,13-dione], for which the EC50 in data set [1] came out at 0.23 nM. Further, the CC50 in “in vitro” is above 50 nM.

Regarding `CC[C@@H]1/C=C\COc2cc(F)c(F)c3c2[C@@H](c2ccccc2SC3)N2CN1C(=O)c1c(O)c(=O)ccn12` (single isomer, unassigned) [Compound 126BB, (13*R,21a*S,Z)-13-ethyl-24,25-difluoro-16-hydroxy-6,10,13,21a-tetrahydro-7,8-(epiprop[1]en[1]yl[3]ylidene)-14,21-methanobenzo[6,7]thiepino[4,5-c]pyrido[1,2-f][1]oxa[5,6,9]triazacyclotridecine-15,17-dione], in data set [1], the EC50 came to 1 nM. The same molecule showed a CC50 in the data set “in vitro” above 200 nM.

As a reminder, the EC50 is the concentration at which the effect is half-maximal. What is called CC50 is the concentration that lowers cell viability or growth by half. Read a low CC50 as greater toxicity to the cells.
